This passage reports EC50 results from patent publication US8435984B2, “Tertiary amine substituted peptides useful as inhibitors of HCV replication” (Achillion Pharmaceuticals, Inc., priority 2007, dated 2013).

In general, EC50 refers to the concentration at which the effect is half-maximal. Low values mean an effect from little substance, high ones a need for much substance.

Each structure is given as a SMILES string. Some results are limits rather than exact numbers.

One experiment relates to HCV replicon. Briefly: HCV replicon replication assay (NPT ELISA) in Huh-7 replicon-containing cells. The conditions noted are these: Hepatitis C virus, 72 h; inhibition of HCV replicon replication, Huh-7 HCV replicon-containing cells, three days. It counts as cell-based, Hepatitis C virus. The protocol:
Compounds claimed herein are tested for the ability to inhibit viral replication of the Hepatitis C replicon in cultured cells in which the HCV replicon construct has been incorporated. The HCV replicon system was described by Bartenschlager, et. al (Science, 285, pp. 110-113 (1999)). The replicon system is predictive of in vivo anti-HCV activity; compounds that are active in humans uniformly evidence activity in the replicon assay.
In this assay HCV replicon containing cells are treated with different concentrations of the test compound to ascertain the ability of the test compound to suppress replication of the HCV replicon. As a positive control, HCV replicon-containing cells are treated with different concentrations of interferon alpha, a known inhibitor of HCV replication. The replicon assay system includes Neomycin Phosphotransferase (NPT) as a component of the replicon itself in order to detect the transcription of replicon gene products in the host cell. Cells in which the HCV replicon is actively replicating have high levels of NPT; the level of NPT is proportional to HCV replication. […] The NPT level of each sample is measured using a captured ELISA.
The HCV replicon contains, 5′-3′, the HCV-IRES, the neomycin phosphotransferase (neo) gene, the IRES of encephalomyocarditis virus, which directs translation of HCV sequences NS3 to NS5B, and the 3′-NTR. The sequence of the HCV replicon has been deposited in GenBank (Accession no. AJ242652).
The replicon is transfected into Huh-7 cells using standard methods such as electroporation.
HCV replicon-containing cells are rinsed with once PBS once; 2 mls of trypsin are then added. Cells are incubated at 37° C. in a 5% CO2 incubator for 3-5 minutes. 10 mls of complete medium is added to stop the reaction. Cells are blown gently, put into a 15 ml tube, and spun at 1200 rpm for four minutes. The trypsin/medium solution is removed and 5 mls of medium (500 ml DMEM (high glucose)) from BRL catalog #12430-054; 50 mls 10% FBS, 5% Geneticin G418 (50 mg/ml, BRL catalog #10131-035), 5 ml MEM non-essential amino acids (100×BRL #11140-050) and 5 ml pen-strep (BRL #15140-148) is added. The cells and media are mixed carefully
Cells are plated with screening medium (500 ml DMEM (BRL #21063-029), 50 ml FBS (BRL #10082-147) and 5 ml MEM non-essential amino acid (BRL #11140-050) at 6000-7500 cells/100 μl/well of 96 well plate (6-7.5×10^5 cells/10 ml/plate). Plates are placed into 37° C. 5% CO2 incubator overnight. 6D. Assay
The following morning, drugs (test compounds or interferon alpha) are diluted in 96 well U bottom plates with media or DMSO/media, depending on the final concentration chosen for screening. Generally for 6 concentrations of each test compounds ranging from 10 micromolar to 0.03 micromolar are applied. 100 μl of the test compound dilution is placed in wells of the 96 well plate containing the HCV replicon cells. Media without drug is added to some wells as a negative controls. DMSO is known to affect cell growth. Therefore, if drugs diluted in DMSO are used, all wells, including negative control (media only) and positive control (interferon alpha) wells, must contain the same concentration of DMSO, for single dose screening. The plates are incubated at 37° C. in a humidified 5% CO2 environment for three days.
On day four, the NTPII assay is quantitated. The medium is poured from the plates and the plates are washed once in 200 μl of PBS. The PBS is then decanted and the plates tapped in a paper towel to remove any remaining PBS. Cells are fixed in situ with 100 id/well of pre-cooled (−20° C.) methanol:acetone (1:1) and the plates are placed at −20° C. for 30 minutes.
The fixing solution is poured from the plates and the plates allowed to air-dry completely (approximately one hour). The appearance of the dried cell layer is recorded and the density of the cells in the toxic wells is scored with the naked eye. […]
A general note: In antiviral work, replicon cells carry a viral genome segment that copies itself.
For `CCCC(NC(=O)C1C2CCCC2CN1C(=O)C(C)N1CCCCC1)C(=O)C(=O)NC1CC1` (stereo not shown) [Compound 35, N-(1-(cyclopropylamino)-1,2-dioxohexan-3-yl)-2-(2-(piperidin-1-yl)propanoyl)octahydrocyclopenta [c]pyrrole-1-carboxamide], the EC50 was less than 100 µM.

On to `CCCC(NC(=O)C1C2CCCC2CN1C(=O)C(c1ccccc1)N1CCCCC1)C(=O)C(=O)NC1CC1` (stereo not shown) [Compound 36, N-(1-(cyclopropylamino)-1,2-dioxohexan-3-yl)-2-(2-phenyl-2-(piperidin-1-yl)acetyl)octahydrocyclopenta[c] pyrrole-1-carboxamide], for which the EC50 was less than 100 µM. In turn, `CCCC(NC(=O)C1C2CCCC2CN1C(=O)C(C)N1CCCCCC1)C(=O)C(=O)NC1CC1` (stereo not shown) [Compound 37, 2-(2-(azepan-1-yl)propanoyl)-N-(1-(cyclopropylamino)-1,2-dioxohexan-3-yl)octahydrocyclopenta[c]pyrrole-1-carboxamide] had a half-maximal effective concentration (EC50) of less than 100 µM. Same read-out and setting: then `CCCC(NC(=O)C1C2CCCC2CN1C(=O)[C@@H](NC(=O)OC(C)(C)C)C(C)(C)C)C(=O)C(=O)NC1CC1` (stereo partly drawn) [Compound 39, tert-butyl(2S)-1-(1-(1-(cyclopropylamino)-1,2-dioxohexan-3-ylcarbamoyl)hexahydrocyclopenta[c]pyrrol-2(1H)-yl)-3,3-dimethyl-1-oxobutan-2-ylcarbamate], with less than 100 µM. Same read-out and setting: then `CCCC(NC(=O)C1C2CCCC2CN1C(=O)C(C)N1CCCC1)C(=O)C(=O)NC1CC1` (stereo not shown) [Compound 40, N-(1-(cyclopropylamino)-1,2-dioxohexan-3-yl)-2-(2-(pyrrolidin-1-yl)propanoyl)octahydrocyclopenta [c]pyrrole-1-carboxamide], with less than 100 µM.

Molecule `CCCC(NC(=O)C1C2CCCC2CN1C(=O)[C@@H](C)N1CCCCC1)C(=O)C(=O)NC1CC1` (stereo partly drawn) [Compound 42, N-(1-(cyclopropylamino)-1,2-dioxohexan-3-yl)-2-((R)-2-(piperidin-1-yl)propanoyl)octahydrocyclopenta [c]pyrrole-1-carboxamide] gave an EC50 of more than 100 µM.

`CCCC(NC(=O)C1C2CCCC2CN1C(=O)[C@@H](C)N1CCCC1)C(=O)C(=O)NC1CC1` (stereo partly drawn) [Compound 43, N-(1-(cyclopropylamino)-1,2-dioxohexan-3-yl)-2-((R)-2-(pyrrolidin-1-yl)propanoyl)octahydrocyclopenta [c]pyrrole-1-carboxamide]: the EC50 is more than 100 µM. On the same count and under the same terms, for `CCCC(NC(=O)[C@@H]1C[C@@H](OC(=O)N2CCc3ccccc3C2)CN1C(=O)C(C)N1CCCCC1)C(=O)C(=O)NC1CC1` (stereo partly drawn) [Compound 44, (3R,5S)-5-(1-(cyclopropylamino)-1,2-dioxohexan-3-ylcarbamoyl)-1-(2-(piperidin-1-yl)propanoyl)pyrrolidin-3-yl 3,4-dihydroisoquinoline-2(1H)-carboxylate] the value was less than 100 µM; for `CCCC(NC(=O)C1C[C@@H](OC(=O)N2CCc3ccccc3C2)CN1C(=O)C(C)N1CCCC1)C(=O)C(=O)NC1CC1` (stereo partly drawn) [Compound 45, (3R,5S)-S-(1-(cyclopropylamino)-1,2-dioxohexan-3-ylcarbamoyl)-1-(2-(pyrrolidin-l-yl)propanoyl)pyrrolidin-3-yl 3,4-dihydroisoquinoline-2(1H)-carboxylate], more than 100 µM. On the same count and under the same terms, then `CCCC(NC(=O)C1C2CCCC2CN1C(=O)[C@H](C)N1CCCCC1)C(=O)C(=O)NC1CC1` (stereo partly drawn) [Compound 46, N-(1-(cyclopropylamino)-1,2-dioxohexan-3-yl)-2-((S)-2-(piperidin-1-yl)propanoyl)octahydrocyclopenta [c]pyrrole-1-carboxamide], with less than 100 µM; and `CCCC(NC(=O)C1C2CCCC2CN1C(=O)[C@@H](N1CCCCC1)C(C)(C)C)C(=O)C(=O)NC1CC1` (stereo partly drawn) [Compound 47, N-(1-(cyclopropylamino)-1,2-dioxohexan-3-yl)-2-((S)-3,3-dimethyl-2-(piperidin-1-yl)butanoyl)octahydrocyclopenta [c]pyrrole-1-carboxamide], with less than 100 µM; and `CCCC(NC(=O)C1C2CCCC2CN1C(=O)[C@H](C(C)C)N1CCCCC1)C(=O)C(=O)NC1CC1` (stereo partly drawn) [Compound 49, N-(1-(cyclopropylamino)-1,2-dioxohexan-3-yl)-2-((S)-3-mcthyl-2-(piperidin-1 - yl)bulanoyl)octahydrocyclopenta [c]pyrrole-1-carboxamide], with less than 100 µM.

`C=CC1CC1(NC(=O)[C@@H]1C[C@@H](Oc2cc(-c3ccccc3)nc3cc(OC)ccc23)CN1C(=O)[C@@H](N1CCCCC1)C(C)(C)C)C(=O)OCC` (stereo partly drawn) [Compound 50, ethyl 1-((2S,4R)-1-((S)-3,3-dimethyl-2-(piperidin-1-yl)butanoyl)-4-(7-methoxy-2-phenylquinolin-4-yloxy)pyrrolidine-2-carboxamido)-2-vinylcyclopropanecarboxylate] gave an EC50 of less than 100 µM.

`C=CC1CC1(NC(=O)[C@@H]1C[C@@H](Oc2cc(-c3ccccc3)nc3cc(OC)ccc23)CN1C(=O)[C@H](c1ccccc1)N1CCCCC1)C(=O)OCC` (stereo partly drawn) [Compound 51, ethyl 1-((2S,4R)-4-(7-methoxy-2-phenylquinolin-4-yloxy)-1-((S)-2-phenyl-2-(piperidin-1-yl)acetyl)pyrrolidine-2-carboxamido)-2-vinylcyclopropanecarboxylate] came in with an EC50 of less than 100 µM. Still for that read-out and setting: for `C=CC1CC1(NC(=O)[C@@H]1C[C@@H](Oc2cc(-c3ccccc3)nc3cc(OC)ccc23)CN1C(=O)[C@H](C(C)C)N1CCCCC1)C(=O)OCC` (stereo partly drawn) [Compound 52, ethyl 1-((2S,4R)-4-(7-methoxy-2-phenylquinolin-4-yloxy)-1-((S)-3-methyl-2-(piperidin-1-yl)butanoyl)pyrrolidine-2-carboxamido)-2-vinylcyclopropanecarboxylate] the value was less than 100 µM. On the same count and under the same terms, for `C=CC1CC1(NC(=O)[C@@H]1C[C@@H](Oc2cc(-c3ccccc3)nc3cc(OC)ccc23)CN1C(=O)[C@H](C1CCCCC1)N1CCCCC1)C(=O)OCC` (stereo partly drawn) [Compound 53, ethyl 1-((2S,4R)-1-((S)-2-cyclohexyl-2-(piperidin-1-yl)acetyl)-4-(7-methoxy-2-phenylquinolin-4-yloxy)pyrrolidine-2-carboxamido)-2-vinylcyclopropanecarboxylate] the value was less than 100 µM; for `C=CC1CC1(NC(=O)[C@@H]1C[C@@H](Oc2cc(-c3ccccc3)nc3cc(OC)ccc23)CN1C(=O)[C@H](C)N1CCCCC1)C(=O)OCC` (stereo partly drawn) [Compound 54, ethyl 1-((2S,4R)-4-(7-methoxy-2-phenylquinolin-4-yloxy)-1-((S)-2-(piperidin-1-yl)propanoyl)pyrrolidine-2-carboxamido)-2-vinylcyclopropanecarboxylate], less than 100 µM; for `C=CC1CC1(NC(=O)[C@@H]1C[C@@H](Oc2cc(-c3ccccc3)nc3cc(OC)ccc23)CN1C(=O)[C@@H](N1CCCCC1)C(C)(C)C)C(=O)O` (stereo partly drawn) [Compound 55, 1-((2S,4R)-1-((S)-3,3-dimethyl-2-(piperidin-1-yl)butanoyl)-4-(7-methoxy-2-phenylquinolin-4-yloxy)pyrrolidine-2-carboxamido)-2-vinylcyclopropanecarboxylic acid], less than 100 µM.

Staying with this experiment, now noted: inhibition of HCV replicon replication, Huh-7 HCV replicon-containing cells, three days.
Molecule `CCCC(NC(=O)C1C2CCCC2CN1C(=O)[C@@H](N1CCCCC1)C(C)(C)C)C(=O)C(=O)NC1CC1` (stereo partly drawn) [Compound 48, N-(1-(cyclopropylamino)-1,2-dioxohexan-3-yl)-2-((S)-3,3-dimethyl-2-(piperidin-1-yl)butanoyl)octahydrocyclopenta [c]pyrrole-1-carboxamide] displayed an EC50 of less than 100 µM.
